Patent US20110124700A1, “SYSTEMS AND METHODS OF CANCER STAGING AND TREATMENT” (priority 2008, published 2011)

Key:
Assay in all cases: sunitinib treatment, viability of NSCLC cell line (IC50)
[1] = system: H1703; type: cell-based
[2] = system: H520; type: cell-based
[3] = system: H358; type: cell-based
[4] = system: A549; type: cell-based
[5] = system: H157; type: cell-based
[6] = system: H322C

**Q.** Which results are given for `CCN(CC)CCNC(=O)c1c(C)[nH]c(/C=C2\C(=O)Nc3ccc(F)cc32)c1C` [sunitinib, N-[2-(diethylamino)ethyl]-5-[(Z)-(5-fluoro-1,2-dihydro-2-oxo-3H-indol-3-ylidine)methyl]-2,4-dimethyl-1H-pyrrole-3-carboxamide]?
**A.** IC50 ([1]; Homo sapiens, NCI-H1703, H1703 cell line, sunitinib): < 0.5 µM; sensitivity of cell line to sunitinib ([1]; untransfected H1703): sensitive (sunitinib sensitive (defined solely for the purposes of this example as having an IC50<3 μM)); IC50 ([2]; Homo sapiens, NCI-H520, H520 cell line, sunitinib): 1 to 3 µM; sensitivity of cell line to sunitinib ([2]; untransfected H520): sensitive (sunitinib sensitive (defined solely for the purposes of this example as having an IC50<3 μM)); IC50 ([3]; Homo sapiens, NCI-H358, H358 cell line, sunitinib): > 10 µM; sensitivity of cell line to sunitinib ([3]; untransfected H358): resistant (sunitinib resistant (defined solely for the purposes of this example as having IC50>9 μM)); IC50 ([4]; Homo sapiens, A549 cell line, sunitinib): > 10 µM; sensitivity of cell line to sunitinib ([4]; untransfected A549): resistant (sunitinib resistant (defined solely for the purposes of this example as having IC50>9 μM)); IC50 ([5]; Homo sapiens, NCI-H157, H157 cell line, sunitinib): > 10 µM; sensitivity of cell line to sunitinib ([5]; untransfected H157): resistant (sunitinib resistant (defined solely for the purposes of this example as having IC50>9 μM)); IC50 [6]: 9 to 10 µM; sensitivity of cell line to sunitinib ([6]; untransfected H322C): resistant (sunitinib resistant (defined solely for the purposes of this example as having IC50>9 μM))
